In ChEMBL document CHEMBL3232736, “Antiproliferative activities of halogenated thieno[3,2-d]pyrimidines” (Bioorg Med Chem, 2014):
≈ marks a conversion by molar mass, not a printed value. Calls of active or inactive are those of the source. No cut-off for these calls is given here.

Tests used:
[1] = tested on: Escherichia coli; test: Antibacterial activity against Escherichia coli ATCC 25922 assessed as growth inhibition at 100 uM after 16 to 20 hrs by microbroth dilution method; assay type: functional, organism-based
[2] = tested on: Bacillus spizizenii; test: Antibacterial activity against Bacillus subtilis ATCC 6633 assessed as growth inhibition at 100 uM after 16 to 20 hrs by microbroth dilution method; assay type: functional
[3] = tested on: Staphylococcus aureus; test: Antibacterial activity against methicillin-resistant Staphylococcus aureus subsp. aureus ATCC 43300 assessed as growth inhibition at 100 uM after 16 to 20 hrs by microbroth dilution method; assay type: functional, organism-based
[4] = tested on: Candida albicans; test: Antifungal activity against Candida albicans ATCC 10231 assessed as growth inhibition at 100 uM after 16 to 20 hrs by microbroth dilution method; assay type: functional
[5] = tested on: Cryptococcus neoformans; test: Antifungal activity against Cryptococcus neoformans ATCC 66031 assessed as growth inhibition at 100 uM after 48 hrs by microbroth dilution method; assay type: functional
[6] = tested on: Cryptococcus neoformans; test: Antifungal activity against Cryptococcus neoformans JEC20 assessed as growth inhibition at 100 uM after 48 hrs by microbroth dilution method; assay type: functional
[7] = tested on: Cryptococcus neoformans; test: Antifungal activity against Cryptococcus neoformans VANC-R265 assessed as growth inhibition at 100 uM after 48 hrs by microbroth dilution method; assay type: functional
[8] = tested on: Cryptococcus neoformans; test: Antifungal activity against Cryptococcus neoformans B4546 assessed as growth inhibition at 100 uM after 48 hrs by microbroth dilution method; assay type: functional
[9] = tested on: L1210; test: Cytotoxicity against mouse L1210 cells assessed as reduction in cell number after 48 hrs by cell counting assay; assay type: functional, cell-based; conditions: L1210, 48 h
[10] = tested on: CCRF-CEM; test: Cytotoxicity against human CCRF-CEM cells assessed as reduction in cell number after 72 hrs by cell counting assay; assay type: functional, cell-based
[11] = tested on: HeLa; test: Cytotoxicity against human HeLa cells assessed as reduction in cell number after 72 hrs by cell counting assay; assay type: functional, cell-based
[12] = tested on: HEL; test: Cytotoxicity against human HEL cells assessed as reduction in cell number by cell counting assay; assay type: functional
[13] = tested on: Vero; test: Cytotoxicity against African green monkey Vero cells assessed as reduction in cell number; assay type: cell-based; conditions: chlorocebus sabaeus
[14] = tested on: HeLa; test: Cytotoxicity against human HeLa cells assessed as reduction in cell number; assay type: functional
[15] = tested on: Pseudomonas aeruginosa; test: Antibacterial activity against Pseudomonas aeruginosa ATCC 27853 assessed as growth inhibition after 16 to 20 hrs by microbroth dilution method; assay type: functional
[16] = tested on: Escherichia coli; test: Antibacterial activity against Escherichia coli ATCC 25922 assessed as growth inhibition after 16 to 20 hrs by microbroth dilution method; assay type: functional
[17] = tested on: Bacillus spizizenii; test: Antibacterial activity against Bacillus subtilis ATCC 6633 assessed as growth inhibition after 16 to 20 hrs by microbroth dilution method; assay type: functional
[18] = tested on: Staphylococcus aureus; test: Antibacterial activity against methicillin-resistant Staphylococcus aureus subsp. aureus ATCC 43300 assessed as growth inhibition after 16 to 20 hrs by microbroth dilution method; assay type: functional
[19] = tested on: Enterococcus faecalis; test: Antibacterial activity against vancomycin-resistant Enterococcus faecalis ATCC 51299 assessed as growth inhibition after 16 to 20 hrs by microbroth dilution method; assay type: functional

Row | Compound | IC50 [9] [µM] | IC50 [10] [µM] | IC50 [11] [µM] | other results
1 | Clc1nc(Cl)c2[nH]ccc2n1 | 6.8 | 25 | 19 | inhibition [1]: inactive; inhibition [2]: inactive; inhibition [3]: inactive; inhibition [4]: inactive; inhibition [5]: inactive; inhibition [6]: inactive; inhibition [7]: inactive; inhibition [8]: inactive; MIC99 [12]: 20 µM (≈ 3.76 µg/mL); MIC99 [13]: >= 20 uM; MIC99 [14]: 20 µM (≈ 3.76 µg/mL)
2 | Nc1nc(Cl)nc2ccsc12 | > 250 | > 250 | > 250 | 
3 | O=c1[nH]c(=O)c2sccc2[nH]1 | > 250 | > 250 | > 250 | 
4 | O=c1[nH]cc(F)c(=O)[nH]1 [FLUOROURACIL] | 0.33 |  |  | 
5 | COc1nc(OC)c2scc(Br)c2n1 | > 250 | ≥ 250 | 203 | 
6 | O=c1[nH]c(=O)c2scc([C@H]3C[C@H](O)[C@@H](CO)O3)c2[nH]1 | > 250 | > 250 | > 250 | 
7 | Clc1nc(-n2cncn2)c2scc(Br)c2n1 | 157 | 84 | 116 | 
8 | CN(C)[C@@H]1C(O)=C(C(N)=O)C(=O)[C@@]2(O)C(O)=C3C(=O)c4c(O)cccc4[C@@](C)(O)[C@H]3C[C@@H]12 [TETRACYCLINE] |  |  |  | MIC95 [15]: 50 µg/mL (≈ 113 µM); MIC95 [16]: 10 µg/mL (≈ 22.5 µM); MIC95 [17]: 10 µg/mL (≈ 22.5 µM); MIC95 [18]: 10 µg/mL (≈ 22.5 µM); MIC95 [19]: 10 µg/mL (≈ 22.5 µM)
9 | Nc1nc(Cl)nc2c(Br)csc12 | 150 | 109 | 96 | 
